Data: patent US7807719B2, “Compounds useful for modulating abnormal cell proliferation” (priority 2004, dated 2010)

What was measured:
Assay type in all cases: cell-based
Z119 cells = test: Killing of Philadelphia positive Z119 acute lymphoblastic leukemia cells in culture (colony assay); conditions: Z119 Philadelphia positive ALL cells, methylcellulose colony count at 7-9 days; read-out: ALL (Z 119) IC50
Experimental: Z119 cells were plated in 1 ml volumes at a density of 5×10^4 cells/ml, in the absence of exogenous growth factors, into 35 mm petri dishes (Nunc, Gibco) containing IMDM (OCI, Toronto) plus 20% FCS (Cansera Rexdale, ON.) in 0.9% (vol/vol) methylcellulose (Fluka, Switzerland) with the indicated concentration of for various test compounds described above. Cultures were set at 37° C., 5% CO2 in a humidified atmosphere. Colonies consisting of more than 20 cells were counted at 7-9 days using an inverted microscope.

OCI-AML-3 cells = test: Killing of AML-3 acute myeloid leukemia cells in culture (colony assay); conditions: Homo sapiens, methylcellulose colony count at 5-6 days
Experimental: OCI-AML-3 cells were plated in 35 mm petri dishes (Nunc, Gibco) in 1 ml volumes at a density of 3.3×10^3 cells/ml, in the absence of exogenous growth factors, containing alpha MEM plus 30% FCS (Cansera, Rexdale Ont.), and 0.9% (vol/vol) methylcellulose (Fluka, Switzerland) and the indicated concentrations of for various test compounds described above. Cell cultures were incubated in a humidified atmosphere at 37° C. with 5% CO2. Colonies containing more than 20 cells were scored, using an inverted microscope, at 5-6 days.

C1 cells = test: Killing of Philadelphia negative C1 acute lymphoblastic leukemia cells in culture (colony assay); conditions: C1 Philadelphia negative ALL cells, methylcellulose colony count in 5-7 days
Experimental: C1 (at 2×10^4 cells/ml) were plated in 1 ml volumes, in the absence of exogenous growth factors, into 35 mm Petri dishes (Nunc, Gibco) containing alpha MEM (Gibco) plus 10% FCS (Cansera Rexdale, Ont.) in 0.9% (vol/vol) methylcellulose (Fluka, Switzerland). Cultures were set up at 37° C. with 5% CO2 in a humidified atmosphere. Colonies consisting of more than 20 cells were counted in 5-7 days using an inverted microscope. For further information, see Leukemia, Vol. 6, No. 1, 1992, pg. 8-17 and Nature, Vol. 379, 15 Feb. 1996.

[1] = test system: normal bone marrow cells (BFU-E); test: Effect upon normal bone marrow differentiation in culture (CFU-GEMM assay, BFU-E colonies); conditions: Bone marrow cell, 336 h, BFU-E colonies evaluated at 14 days, read-out: NBM (BFU-E) IC50
Experimental: The CFU-GEMM assay was performed according to Fauser and Messner (1978, Blood, 52(6) 143-8) and Messner and Fausser (1980, Blut, 41(5) 327-33) with some variations. In brief, heparinized bone marrow cells were layered over Percoll (1.077 gm/ml) (Pharmacia Fine Chemical, Piscataway N.J.) and centrifuged at 400 g at 4° C. for 10 minutes to remove neutrophils and RBCs. The fractionated BM cells at 2×10^5 cells/ml were cultured in IMDM (OCI, Toronto) containing 0.9% (vol/vol) methylcellulose supplemented with 30% FCS (Cansera Rexdale, ON.) or normal human plasma, a cocktail of cytokines containing G-CSF (10 ng/ml, Amgen), IL-3 (40 U/ml, Immunex), MGF (50 ng/ml, Immunex), Erythropoietin (2 u/ml, Epprex) or TPO (10 ng/ml, Amgen), 5×10^−5 M β-2-mercaptoethanol and the specified concentration of CR4. The culture mixture was plated in 1 ml volumes into 35 mm petri dishes and incubated at 37° C., 5% CO2 in a humidified atmosphere. All cultures were evaluated at 14 days for the number of BFU-E colonies (defined as aggregates of more than 500 hemoglobinized cells or, 3 or more erythroid subcolonies), OFU-GM colonies (defined as granulocyte or monocyte-macrophage cells or both), CFU-Meg colonies (comprising 4 or more megakaryocytes) and CFU-GEMM colonies (a mixed population comprising of all elements).

Structure (SMILES) | IC50 (Z119 cells) [nM] | IC50 (OCI-AML-3 cells) [nM] | IC50 (C1 cells) [nM] | IC50 [1] [nM]
N#C/C(=C\C=C\c1ccco1)C(=O)NCc1ccc(O)c(O)c1 [CRH-48, 2-cyano-5-furan-2-yl-penta-2E,4E-dienoic acid 3,4-dihydroxybenzylamide] | 250 to 500 | 230 | ≥ 250 | ≤ 10000
N#C/C(=C\c1ccc(/C=C/c2ccncc2)cc1)C(=O)NCc1ccncc1 [CRS-77, 2-cyano-N-pyridin-4-ylmethyl-3-[4-(2-pyridin-4-yl-trans-vinyl)phenyl]-E-acrylamide] | > 1000 |  |  | > 10000
N#C/C(=C\C=C\c1cc(O)ccc1O)C(=O)NCc1ccccc1 [CRO-70, 2-Cyano-5-(2,5-dihydroxyphenyl)penta-2E,4E-dienoic acid benzylamide] | 260 | > 500 | > 500 | 6900
N#C/C(=C\C=C\c1cccs1)C(=O)NCc1ccc(O)c(O)c1 [CRH-60, 2-cyano-5-thiophen-2-yl-penta-2E,4E-dienoic acid 3,4-dihydroxybenzylamide] | < 500 |  |  | 7100
N#C/C(=C\c1ccc(/C=C/c2ccccc2)cc1)C(=O)NCc1ccncc1 [CRS-75, 2-cyano-N-pyridin-4-ylmethyl-3-(4-trans-styrylphenyl)-E-acrylamide] | > 1000 | ≥ 500 | ≥ 500 | > 10000
N#C/C(=C\C=C\c1cccnc1)C(=O)NCc1ccccc1 [CRH-59, 2-cyano-5-pyridin-3-yl-penta-2E,4E-dienoic acid benzylamide] | > 1000 |  |  | > 10000
N#C\C(=C/C=C/C=C/c1ccc(O)c(O)c1)C(=O)NCc1ccccc1 [CRT-88, 2-Cyano-7-(3,4-dihydroxyphenyl)hepta-2E,4E,6E-trienoic acid benzyl-amide] | < 500 |  |  | 3100 to 5400
COc1cc(/C=C/C=C/C=C(\C#N)C(=O)NCc2ccc(O)c(O)c2)ccc1O [CRT-67, 2-cyano-7-(4-hydroxy-3-methoxyphenyl)hepta-2E,4E,6E-trienoic acid 3,4-dihydroxybenzylamide] | ≤ 500 | > 500 | > 500 | 10200
N#C/C(=C\C(Cl)=C\c1ccccc1)C(=O)NCc1ccc(O)c(O)c1 [CRC-47, 4-chloro-2-cyano-5-phenyl-penta-2E,4Z-dienoic acid 3,4-dihydroxybenzylamide] | < 125 |  |  | < 5000
N#C/C(=C\c1ccc(/C=C/c2ccncc2)cc1)C(=O)NCc1ccc(O)c(O)c1 [CRS-76, 2-cyano-N-(3,4-dihydroxybenzyl)-3-[4-(2-pyridin-4-yl-trans-vinyl)-phenyl]-E-acrylamide] | > 1000 |  |  | > 10000
N#C/C(=C\C=C\c1cccnc1)C(=O)NCc1ccc(O)c(O)c1 [CRH-58, 2-cyano-5-pyridin-3-yl-penta-2E,4E-dienoic acid 3,4-dihydroxybenzylamide] | 260 | > 500 | > 500 | 7500 to 9800
